Tests used:
Format in all cases: ADME, organism-based
[1] = Drug excretion in human urine assessed as retention time treated with [14C]bendamustine at 120 mg/m'2, iv after 2 hrs by 180 mins LC-LSC-MSn method
[2] = Drug excretion in human urine treated with [14C]bendamustine at 120 mg/m'2, iv after 2 hrs by 60-min LC-LSC-MSn method; settings: in vivo
[3] = Drug excretion in human urine assessed as retention time treated with [14C]bendamustine at 120 mg/m'2, iv after 2 hrs by 60 mins LC-LSC-MSn method
[4] = Drug level in human urine treated with [14C]bendamustine at 120 mg/m'2, iv up to 168 hrs by 60-min LC-LSC-MSn method; settings: in vivo
[5] = Drug excretion in human urine assessed as 4-(6-((2-(2-amino-2-carboxyethylthio)ethyl)(2-hydroxyethyl)amino)-1-methyl-1H-benzo[d]imidazol-2-yl)-4-hydroxybutanoic acid formation at 120 mg/m'2, iv up to 168 hrs by 60-min LC-LSC-MSn method; settings: in vivo
[6] = Total drug recovery in human at 120 mg/m'2, iv administered as single dose measured up to 3 weeks; settings: in vivo, read-out: Drug recovery
[7] = Drug excretion in human urine assessed as 4-(6-(bis(2-hydroxyethyl)amino)-1-methyl-1H-benzo[d]imidazol-2-yl)butanoic acid formation at 120 mg/m'2, iv up to 168 hrs by 60-min LC-LSC-MSn method; settings: in vivo
[8] = Drug excretion in human urine assessed as retention time at 120 mg/m'2, iv after 2 hrs by 180-min LC-LSC-MSn method
[9] = Drug recovery in human urine at 120 mg/m'2, iv administered as single dose measured up to 3 weeks; settings: read-out: Drug recovery
[10] = Drug excretion in human urine assessed as 4-(6-((2-(2-amino-2-carboxyethylthio)ethyl)(2-hydroxyethyl)amino)-1-methyl-1H-benzo[d]imidazol-2-yl)butanoic acid formation at 120 mg/m'2, iv up to 168 hrs by 60-min LC-LSC-MSn method; settings: in vivo
[11] = Drug excretion in human urine assessed as 4-(6-(bis(2-hydroxyethyl)amino)-1-methyl-1H-benzo[d]imidazol-2-yl)-4-hydroxybutanoic acid formation at 120 mg/m'2, iv up to 168 hrs by 60-min LC-LSC-MSn method; settings: in vivo

Compound	Retention_time [1]	Drug excretion [2]	Retention_time [3]	also measured
Cn1c(C(O)CCC(=O)O)nc2ccc(N(CCO)CCSCC(N)C(=O)O)cc21 (centres undefined)	19.7 min	> 1%	11 min	Drug excretion [4]: metabolite_detected
Cn1c(C(O)CCC(=O)O)nc2ccc(N(CCO)CCCl)cc21 (centres undefined)	71.3 min	> 1%	27.1 min	
Cl.Cn1c(CCCC(=O)O)nc2ccc(N(CCCl)CCCl)cc21				Drug excretion [5]: metabolite_detected; dose excreted at 504 h [6]: 76%; Drug excretion [7]: metabolite_detected; Retention_time [8]: 36.3 min; dose excreted at 504 h [9]: 3%; Drug excretion [10]: metabolite_detected; Drug excretion [11]: metabolite_detected
Cn1c(CCCC(=O)O)nc2ccc(NCC=O)cc21	29.4 min	> 1%	16.9 min	
Cn1c(C(O)CCC(=O)O)nc2ccc(N(CCCl)CCCl)cc21 (centres undefined)	104.5 min	> 1%	35.1 min	
Cn1c(CCCC(=O)O)nc2ccc(N(CCS)CCCl)cc21	99.4 min	> 1%	35.1 min	
CN1CC(=O)N=C1NCCN(CCCl)c1ccc2nc(CCCC(=O)O)n(C)c2c1	54.6 min	> 1%	23.1 min	
O=C(O)CCC(O)c1nc2ccc(N(CCCl)CCCl)cc2[nH]1 (centres undefined)	105.1 min	> 1%	35.3 min	
CC(=O)NC(CSCCN(CCCl)c1ccc2nc(CCCC(=O)O)n(C)c2c1)C(=O)O (centres undefined)	97.6 min	> 1%	32.2 min	
Cn1c(CCCC(=O)O)nc2ccc(N(CCO)CCOP(=O)(O)O)cc21	22 min	> 1%	12.1 min	
Cn1c(C(O)CCC(=O)O)nc2ccc(NCCCl)cc21 (centres undefined)	57.3 min	> 1%	25.4 min	
Cn1c(CCCC(=O)O)nc2ccc(NCCCl)cc21	72.5 min	> 1%	28.6 min	
Cn1c(CCCC(=O)O)nc2ccc(N(CCO)CCCl)cc21	82.7 min	> 1%	29.2 min	
Cn1c(CCCC(=O)O)nc2ccc(N(CCCl)CCOP(=O)(O)O)cc21	70.7 min	> 1%	26.1 min	
Cn1c(CCCC(=O)O)nc2ccc(N(CCO)CCSCC(N)C(=O)O)cc21 (centres undefined)	29 min	> 1%	15.8 min	Drug excretion [4]: metabolite_detected
O=C(O)CCCc1nc2ccc(N(CCO)CCO)cc2[nH]1	18.7 min	> 1%	10.9 min	
Cn1c(CCCC(=O)O)nc2ccc(N(CCCl)CCSCC(N)C(=O)O)cc21 (centres undefined)	73.7 min	> 1%	26.5 min	
Cn1c(CCCC(=O)O)nc2ccc(N(CCO)CCO)cc21	33.7 min	> 1%	17.6 min	Drug excretion [4]: metabolite_detected
Cn1c(CCCC(=O)O)nc2ccc(N(CCO)CCS)cc21	64.4 min	> 1%	24.2 min	
Cn1c(C(O)CCC(=O)O)nc2ccc(N(CCO)CCOP(=O)(O)O)cc21 (centres undefined)	14.7 min	> 1%	7.9 min	
CN1CC(=O)N=C1NCCN(CCO)c1ccc2nc(CCCC(=O)O)n(C)c2c1	24.2 min	> 1%	13.9 min	
Cn1c(C(O)CCC(=O)O)nc2ccc(N(CCO)CCO)cc21 (centres undefined)	23.8 min	> 1%	13.3 min	Drug excretion [4]: metabolite_detected

From ChEMBL document CHEMBL3526006, “Metabolite profiling of bendamustine in urine of cancer patients after administration of [14C]bendamustine” (Drug Metab Dispos, 2012)
